Results: EP4745137A1 (Gluetacs Therapeutics (Shanghai) Co., Ltd., priority 2023, dated 2025)

What was measured:
[1] = system: Human acute T lymphocytic leukemia cells (Molt-4); experiment: Tumor cell proliferation inhibition (CellTiter-Meiluncell Luminescent Cell Viability Assay), Molt-4; conditions: MOLT-4, 96 h, read-out: inhibitory activity (IC50, nM) against tumor cells proliferation, Molt 4
Procedure: (§1) The tumor cells used herein were cultured in a cell culture medium listed in table 2 at 37°C in an incubator with 5% CO2. Prior to experimentation, all cell lines used were correctly identified by STR profiling, and tested negative for mycoplasma contamination using a mycoplasma detection kit through routine screenings.
(§2) On the following day, the test compounds of the present disclosure were subjected to serial dilution. […] Subsequently, 0.5 µL of the test compound dilution was transferred into the 96-well plate containing the cells, with each well containing 100 µL of cell culture medium. […] Into the 96-well plate, the diluted test compounds and corresponding detection reagents were added, resulting in final test compound concentrations of 500 nM and 10 nM, respectively. The experimental procedure is described below using the diluted 2 µM test compound as an example.
(§3) After the cells were treated with the compounds of the present disclosure for a specified period (the treatment durations were shown in Table 3), the cell viability assay reagent was added to the culture medium according to the kit's instructions to determine cell viability. […] All controls were treated using the same procedure as the compounds of the present disclosure. The growth inhibition curves for the compounds of the present disclosure were plotted using Prism GraphPad software, and the IC50 values were calculated therefrom.

[2] = molecular target: T1, human Cereblon WT GST-tagged protein (Homo sapiens, UniProt Q96SW2); experiment: CRBN-binding affinity by HTRF (CEREBLON BINDING kit); conditions: HTRF inhibitory activity, CEREBLON BINDING kit; read-out: HTRF IC50
T1 construct: purchased CISBIO 64BDCRBNPEH

IKZF2 = molecular target: T2, IKZF2 (Homo sapiens, UniProt Q96SW2+Q9UKS7); experiment: Western-blot assay of substrate protein degradation in hPBMCs, IKZF2; format: cell-based; conditions: 24 hours of compound treatment, compounds tested at 50 nM and 500 nM (concentration of the table not stated)
T2 construct: endogenous in cells; host or cells: hPBMCs (Milecell Biotechnologies)

CK1α = molecular target: T3, CK1α (Homo sapiens, UniProt P48729+Q96SW2); experiment: Western-blot assay of substrate protein degradation in hPBMCs, CK1α; format: cell-based; conditions: 24 hours of compound treatment, compounds tested at 50 nM and 500 nM (concentration of the table not stated)
T3 construct: endogenous in cells; host or cells: hPBMCs (Milecell Biotechnologies)

IKZF1 = molecular target: T4, IKZF1 (Homo sapiens, UniProt Q13422+Q96SW2); experiment: Western-blot assay of substrate protein degradation in hPBMCs, IKZF1; format: cell-based; conditions: 24 hours of compound treatment, compounds tested at 50 nM and 500 nM (concentration of the table not stated)
T4 construct: endogenous in cells; host or cells: hPBMCs (Milecell Biotechnologies)

NCI-H1975 = experiment: Tumor cell proliferation inhibition (CellTiter-Meiluncell Luminescent Cell Viability Assay), NCI-H1975; conditions: Homo sapiens, NCI-H1975, 96 h, read-out: inhibitory activity (IC50, nM) against tumor cells proliferation, H1975
[3] = system: Human breast cancer cells (MDA-MB-231); experiment: Tumor cell proliferation inhibition (CellTiter-Meiluncell Luminescent Cell Viability Assay), MDA-MB-231; conditions: MDA-MB-231, 96 h, read-out: inhibitory activity (IC50, nM) against tumor cells proliferation, MDA-MB-231
WEE1 = molecular target: T5, WEE1 (Homo sapiens, UniProt P30291+Q96SW2); experiment: Western-blot assay of substrate protein degradation in hPBMCs, WEE1; format: cell-based; conditions: 24 hours of compound treatment, compounds tested at 50 nM and 500 nM (concentration of the table not stated)
T5 construct: endogenous in cells; host or cells: hPBMCs (Milecell Biotechnologies)

TMD8 = experiment: Tumor cell proliferation inhibition (CellTiter-Meiluncell Luminescent Cell Viability Assay), TMD8; conditions: Homo sapiens, TMD8, 96 h, read-out: inhibitory activity (IC50, nM) against tumor cells proliferation, TMD8
Procedure: as §1, §2, §3

GSPT1 = molecular target: T6, GSPT1 (Homo sapiens, UniProt P15170+Q96SW2); experiment: Western-blot assay of substrate protein degradation in hPBMCs, GSPT1; format: cell-based; conditions: 24 hours of compound treatment, compounds tested at 50 nM and 500 nM (concentration of the table not stated)
T6 construct: endogenous in cells; host or cells: hPBMCs (Milecell Biotechnologies)

IKZF3 = molecular target: T7, IKZF3 (Homo sapiens, UniProt Q96SW2+Q9UKT9); experiment: Western-blot assay of substrate protein degradation in hPBMCs, IKZF3; format: cell-based; conditions: 24 hours of compound treatment, compounds tested at 50 nM and 500 nM (concentration of the table not stated)
T7 construct: endogenous in cells; host or cells: hPBMCs (Milecell Biotechnologies)
T7 sequence (Q9UKT9 whole entry): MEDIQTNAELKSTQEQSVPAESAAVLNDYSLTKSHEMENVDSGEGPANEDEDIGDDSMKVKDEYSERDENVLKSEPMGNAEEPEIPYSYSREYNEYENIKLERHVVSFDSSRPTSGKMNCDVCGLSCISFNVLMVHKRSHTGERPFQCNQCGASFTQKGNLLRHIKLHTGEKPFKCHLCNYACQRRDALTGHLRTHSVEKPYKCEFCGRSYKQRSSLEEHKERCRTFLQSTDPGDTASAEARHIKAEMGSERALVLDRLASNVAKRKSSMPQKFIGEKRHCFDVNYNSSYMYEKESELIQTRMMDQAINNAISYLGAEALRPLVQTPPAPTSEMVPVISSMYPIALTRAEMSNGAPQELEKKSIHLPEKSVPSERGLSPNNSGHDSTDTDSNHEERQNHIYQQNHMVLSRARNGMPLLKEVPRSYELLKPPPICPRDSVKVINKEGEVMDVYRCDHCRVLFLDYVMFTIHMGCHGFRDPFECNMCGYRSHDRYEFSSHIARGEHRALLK
T7 sequence (Q96SW2 whole entry): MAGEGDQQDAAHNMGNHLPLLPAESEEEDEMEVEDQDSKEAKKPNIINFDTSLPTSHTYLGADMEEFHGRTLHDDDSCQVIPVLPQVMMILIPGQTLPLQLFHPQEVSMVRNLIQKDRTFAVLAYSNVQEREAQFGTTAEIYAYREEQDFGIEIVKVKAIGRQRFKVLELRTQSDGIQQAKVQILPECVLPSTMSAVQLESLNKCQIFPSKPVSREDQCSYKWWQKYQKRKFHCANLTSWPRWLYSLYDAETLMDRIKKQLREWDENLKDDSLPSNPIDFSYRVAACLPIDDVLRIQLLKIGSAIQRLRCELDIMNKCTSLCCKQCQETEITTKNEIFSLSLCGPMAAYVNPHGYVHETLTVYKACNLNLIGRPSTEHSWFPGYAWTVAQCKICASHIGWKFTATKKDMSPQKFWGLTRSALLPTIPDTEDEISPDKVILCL
T7 sequence (Q16531 whole entry partner): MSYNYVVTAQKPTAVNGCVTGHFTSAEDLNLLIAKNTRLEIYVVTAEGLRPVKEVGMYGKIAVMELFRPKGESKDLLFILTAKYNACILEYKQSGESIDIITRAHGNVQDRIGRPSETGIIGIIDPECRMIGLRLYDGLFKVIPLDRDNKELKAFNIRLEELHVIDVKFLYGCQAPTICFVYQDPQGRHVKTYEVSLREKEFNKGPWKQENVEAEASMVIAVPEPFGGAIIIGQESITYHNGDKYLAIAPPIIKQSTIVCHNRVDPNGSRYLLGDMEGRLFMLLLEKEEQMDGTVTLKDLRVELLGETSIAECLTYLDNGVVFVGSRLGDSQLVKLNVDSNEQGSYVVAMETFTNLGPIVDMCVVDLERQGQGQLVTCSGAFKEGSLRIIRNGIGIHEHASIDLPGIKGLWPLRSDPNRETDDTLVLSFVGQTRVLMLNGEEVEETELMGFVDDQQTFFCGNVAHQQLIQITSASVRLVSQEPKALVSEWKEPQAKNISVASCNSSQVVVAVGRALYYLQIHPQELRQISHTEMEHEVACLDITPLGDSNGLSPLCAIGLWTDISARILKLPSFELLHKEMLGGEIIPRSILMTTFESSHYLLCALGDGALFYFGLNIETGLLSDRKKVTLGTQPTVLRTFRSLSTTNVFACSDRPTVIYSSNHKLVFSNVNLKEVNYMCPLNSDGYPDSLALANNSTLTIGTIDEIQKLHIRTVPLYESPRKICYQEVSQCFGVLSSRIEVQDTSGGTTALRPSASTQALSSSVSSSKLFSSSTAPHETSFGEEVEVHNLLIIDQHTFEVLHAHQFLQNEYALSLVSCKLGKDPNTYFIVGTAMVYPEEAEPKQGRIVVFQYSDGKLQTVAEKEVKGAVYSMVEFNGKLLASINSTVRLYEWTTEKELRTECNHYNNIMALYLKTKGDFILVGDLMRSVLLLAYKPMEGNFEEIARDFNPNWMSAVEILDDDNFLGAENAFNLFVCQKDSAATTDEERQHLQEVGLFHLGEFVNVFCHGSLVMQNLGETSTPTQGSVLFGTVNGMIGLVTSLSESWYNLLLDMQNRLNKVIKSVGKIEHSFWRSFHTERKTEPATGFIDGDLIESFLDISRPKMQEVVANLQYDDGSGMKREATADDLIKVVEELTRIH

T1 sequence (Q96SW2 whole entry): as the sequence (Q96SW2 whole entry) above
T4 sequence (Q13422 whole entry): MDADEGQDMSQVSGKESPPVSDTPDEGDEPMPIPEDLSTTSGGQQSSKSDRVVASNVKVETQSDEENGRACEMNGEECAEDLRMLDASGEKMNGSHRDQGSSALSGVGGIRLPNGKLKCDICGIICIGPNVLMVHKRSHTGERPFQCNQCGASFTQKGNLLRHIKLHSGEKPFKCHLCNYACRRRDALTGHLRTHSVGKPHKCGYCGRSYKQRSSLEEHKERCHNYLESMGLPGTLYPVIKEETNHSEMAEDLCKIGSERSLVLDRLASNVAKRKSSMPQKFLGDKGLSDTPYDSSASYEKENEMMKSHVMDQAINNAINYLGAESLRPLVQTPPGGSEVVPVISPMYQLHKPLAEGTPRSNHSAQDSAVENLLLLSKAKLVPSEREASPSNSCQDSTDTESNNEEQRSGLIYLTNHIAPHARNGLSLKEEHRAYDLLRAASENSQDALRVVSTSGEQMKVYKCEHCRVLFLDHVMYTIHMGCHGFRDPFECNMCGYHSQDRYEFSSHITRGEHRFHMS
T4 sequence (Q96SW2 whole entry): as the sequence (Q96SW2 whole entry) above
T4 sequence (Q16531 whole entry partner): as the sequence (Q16531 whole entry partner) above
T2 sequence (Q9UKS7 whole entry): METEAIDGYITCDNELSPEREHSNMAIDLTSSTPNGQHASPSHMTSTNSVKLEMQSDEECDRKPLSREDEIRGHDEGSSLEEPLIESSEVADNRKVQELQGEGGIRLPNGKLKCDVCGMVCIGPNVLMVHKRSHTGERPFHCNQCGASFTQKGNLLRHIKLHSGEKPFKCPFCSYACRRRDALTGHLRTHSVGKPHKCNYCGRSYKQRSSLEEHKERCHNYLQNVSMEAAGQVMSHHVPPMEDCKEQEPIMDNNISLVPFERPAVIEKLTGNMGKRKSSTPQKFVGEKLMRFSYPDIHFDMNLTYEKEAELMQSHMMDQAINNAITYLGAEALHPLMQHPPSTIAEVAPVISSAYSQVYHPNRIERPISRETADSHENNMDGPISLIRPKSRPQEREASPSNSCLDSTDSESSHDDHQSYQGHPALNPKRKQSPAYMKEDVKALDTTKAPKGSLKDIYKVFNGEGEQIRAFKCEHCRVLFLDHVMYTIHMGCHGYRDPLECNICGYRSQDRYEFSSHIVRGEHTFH
T2 sequence (Q96SW2 whole entry): as the sequence (Q96SW2 whole entry) above
T2 sequence (Q16531 whole entry partner): as the sequence (Q16531 whole entry partner) above
T3 sequence (P48729 whole entry): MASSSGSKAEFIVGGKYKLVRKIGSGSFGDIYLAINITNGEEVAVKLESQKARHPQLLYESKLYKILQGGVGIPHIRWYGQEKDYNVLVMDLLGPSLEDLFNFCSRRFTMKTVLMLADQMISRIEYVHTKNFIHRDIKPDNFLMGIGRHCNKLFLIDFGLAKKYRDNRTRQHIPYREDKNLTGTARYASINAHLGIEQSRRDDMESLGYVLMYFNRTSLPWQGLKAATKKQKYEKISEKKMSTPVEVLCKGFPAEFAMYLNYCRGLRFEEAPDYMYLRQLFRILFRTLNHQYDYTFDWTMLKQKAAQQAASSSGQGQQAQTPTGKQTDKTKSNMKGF
T3 sequence (Q96SW2 whole entry): as the sequence (Q96SW2 whole entry) above
T3 sequence (Q16531 whole entry partner): as the sequence (Q16531 whole entry partner) above
T5 sequence (P30291 whole entry): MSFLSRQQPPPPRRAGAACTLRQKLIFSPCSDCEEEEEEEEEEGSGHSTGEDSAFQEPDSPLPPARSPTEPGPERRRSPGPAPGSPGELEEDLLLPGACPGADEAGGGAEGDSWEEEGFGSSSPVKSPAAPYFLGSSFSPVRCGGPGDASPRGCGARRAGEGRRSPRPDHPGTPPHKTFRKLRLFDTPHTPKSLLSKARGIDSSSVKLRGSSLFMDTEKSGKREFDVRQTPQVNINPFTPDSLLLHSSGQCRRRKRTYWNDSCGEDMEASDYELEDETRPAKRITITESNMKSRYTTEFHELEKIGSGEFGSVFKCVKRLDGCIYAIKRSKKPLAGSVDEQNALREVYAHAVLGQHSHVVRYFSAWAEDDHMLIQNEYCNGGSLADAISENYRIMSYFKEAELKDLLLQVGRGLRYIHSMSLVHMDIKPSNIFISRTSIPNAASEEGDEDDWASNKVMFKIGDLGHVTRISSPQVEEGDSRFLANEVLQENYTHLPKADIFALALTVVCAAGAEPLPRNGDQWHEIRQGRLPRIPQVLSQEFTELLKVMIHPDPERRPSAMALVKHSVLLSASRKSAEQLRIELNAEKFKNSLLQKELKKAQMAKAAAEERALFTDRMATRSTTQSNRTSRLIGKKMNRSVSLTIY
T5 sequence (Q96SW2 whole entry): as the sequence (Q96SW2 whole entry) above
T5 sequence (Q16531 whole entry partner): as the sequence (Q16531 whole entry partner) above

| Compound | IC50 [1] [nM] | IC50 [2] [nM] | IKZF2 substrate protein remaining % (IKZF2) | CK1a substrate protein remaining % (CK1α) | IKZF 1 substrate protein remaining % (IKZF1) | IC50 (NCI-H1975) [nM] | IC50 [3] [nM] | Weel substrate protein remaining % (WEE1) | IC50 (TMD8) [nM] | GSPT1 substrate protein remaining % (GSPT1) | IKZF3 substrate protein remaining % (IKZF3) |
| --- | --- | --- | --- | --- | --- | --- | --- | --- | --- | --- | --- |
| O=C1CCC(N2Cc3cc(CN4CC=C(c5nccc(Cl)c5Cl)CC4)ccc3C2=O)C(=O)N1 (stereo not shown) [GT-04570, 3-(5-((3,4-dichloro-3',6'-dihydro-[2,4'-bipyridin]-1'(2'H)-yl)methyl)-1-oxoisoindolin-2-yl)piperidine-2,6-dione] | 1 to 5 | 500 to 1000 | A (0% ≤ substrate protein remaining % ≤ 80%) | A (0% ≤ substrate protein remaining % ≤ 80%) | A (0% ≤ substrate protein remaining % ≤ 80%) | 10 to 50 | 1 to 5 | A (0% ≤ substrate protein remaining % ≤ 80%) | 10 to 50 | A (0% ≤ substrate protein remaining % ≤ 80%) | A (0% ≤ substrate protein remaining % ≤ 80%) |
| O=C1CCC(N2Cc3cc(CN4CCC(c5cccs5)CC4)ccc3C2=O)C(=O)N1 (stereo not shown) [GT-04571, 3-(1-oxo-5-((4-(thiophen-2-yl)piperidin-1-yl)methyl)isoindolin-2-yl)piperidine-2,6-dione] | 5 to 10 | 1000 to 1500 | A (0% ≤ substrate protein remaining % ≤ 80%) | A (0% ≤ substrate protein remaining % ≤ 80%) | A (0% ≤ substrate protein remaining % ≤ 80%) | 50 to 100 | 10 to 50 | A (0% ≤ substrate protein remaining % ≤ 80%) | 100 to 500 | A (0% ≤ substrate protein remaining % ≤ 80%) | A (0% ≤ substrate protein remaining % ≤ 80%) |
| Cc1ccc(C2=CCN(Cc3ccc4c(c3)CN(C3CCC(=O)NC3=O)C4=O)CC2)s1 (stereo not shown) [GT-04572, 3-(5-((4-(5-methylthiophen-2-yl)-3,6-dihydropyridin-1(2H)-yl)methyl)-1-oxoisoindolin-2-yl)piperidine-2,6-dione] | 1 to 5 | 500 to 1000 | A (0% ≤ substrate protein remaining % ≤ 80%) | A (0% ≤ substrate protein remaining % ≤ 80%) | A (0% ≤ substrate protein remaining % ≤ 80%) | 10 to 50 | 10 to 50 | A (0% ≤ substrate protein remaining % ≤ 80%) | 10 to 50 | A (0% ≤ substrate protein remaining % ≤ 80%) | A (0% ≤ substrate protein remaining % ≤ 80%) |
| Cc1ccc(C2CCN(Cc3ccc4c(c3)CN(C3CCC(=O)NC3=O)C4=O)CC2)s1 (stereo not shown) [GT-04573, 3-(5-((4-(5-methylthiophen-2-yl)piperidin-1-yl)methyl)-1-oxoisoindolin-2-yl)piperidine-2,6-dione] | 5 to 10 | 1000 to 1500 | A (0% ≤ substrate protein remaining % ≤ 80%) | A (0% ≤ substrate protein remaining % ≤ 80%) | A (0% ≤ substrate protein remaining % ≤ 80%) | 50 to 100 | 10 to 50 | A (0% ≤ substrate protein remaining % ≤ 80%) | 50 to 100 | A (0% ≤ substrate protein remaining % ≤ 80%) | A (0% ≤ substrate protein remaining % ≤ 80%) |
| O=C1CCC(N2Cc3cc(CN4CC=C(c5ccsc5)CC4)ccc3C2=O)C(=O)N1 (stereo not shown) [GT-04585, 3-(1-oxo-5-((4-(thiophen-3-yl)-3,6-dihydropyridin-1(2H)-yl)methyl)isoindolin-2-yl)piperidine-2,6-dione] | 1 to 5 | < 500 | A (0% ≤ substrate protein remaining % ≤ 80%) | A (0% ≤ substrate protein remaining % ≤ 80%) | A (0% ≤ substrate protein remaining % ≤ 80%) | 10 to 50 | 5 to 10 | A (0% ≤ substrate protein remaining % ≤ 80%) | 10 to 50 | A (0% ≤ substrate protein remaining % ≤ 80%) | A (0% ≤ substrate protein remaining % ≤ 80%) |
